Literature values as cited in patent US20130251663A1, “Tissue Preservation Fluid” (GREENBLENDZ, INC., priority 2012, published 2013).

Tested on: eyes nose and throat
Details: airborne exposure

C=O [formaldehyde]
Airborne concentration immediately dangerous to life and health: 100 ppm | Airborne concentration that can cause irritation of the eyes nose and throat: above 0.1 ppm
